The text below walks through data of paper PMC11813896, “Bis(7)-harmine derivatives as potential multi-target anti-Alzheimer agents” (Frontiers in Chemistry, 2025).

Where two headings read alike, the source gives them in different places. Where only a bound is given, the exact number is not on record here.

The target of data set [1] is hBuChE (Homo sapiens, UniProt P06276). The data set is described as follows: Ellman's assay, hBuChE inhibition. The data set is classed as biochemical. Particulars: read-out: inhibition of hBuChE in primary screening. Here is the method: The Ellman’s assay was utilized to assess the inhibitory potential of novel bis(7)-harmine derivatives against hAChE and hBuChE. 50 μL of hAChE (0.02 unit/mL) or hBChE (0.02 unit/mL) were incubated with 10 μL of the compound in 96-well plates at 37°C for 6 min. Subsequently, 30 μL of a substrate solution containing acetylthiocholine iodide (ATCI) or butyrylthiocholine iodide (BTCI) at a concentration of 0.01 M was added, and the mixture was further incubated at 37°C for an additional duration of 12 min. Finally, the activity was measured by adding 150 μL of a solution containing 5,5′−dithiobis (2-nitrobenzoic acid) (DTNB) at a concentration of 0.01 M, followed by measuring absorbance at a wavelength of 415 nm using an Evolution 300 PC UV-Vis Spectrophotometer.
Sequence of hBuChE (P06276 29-602): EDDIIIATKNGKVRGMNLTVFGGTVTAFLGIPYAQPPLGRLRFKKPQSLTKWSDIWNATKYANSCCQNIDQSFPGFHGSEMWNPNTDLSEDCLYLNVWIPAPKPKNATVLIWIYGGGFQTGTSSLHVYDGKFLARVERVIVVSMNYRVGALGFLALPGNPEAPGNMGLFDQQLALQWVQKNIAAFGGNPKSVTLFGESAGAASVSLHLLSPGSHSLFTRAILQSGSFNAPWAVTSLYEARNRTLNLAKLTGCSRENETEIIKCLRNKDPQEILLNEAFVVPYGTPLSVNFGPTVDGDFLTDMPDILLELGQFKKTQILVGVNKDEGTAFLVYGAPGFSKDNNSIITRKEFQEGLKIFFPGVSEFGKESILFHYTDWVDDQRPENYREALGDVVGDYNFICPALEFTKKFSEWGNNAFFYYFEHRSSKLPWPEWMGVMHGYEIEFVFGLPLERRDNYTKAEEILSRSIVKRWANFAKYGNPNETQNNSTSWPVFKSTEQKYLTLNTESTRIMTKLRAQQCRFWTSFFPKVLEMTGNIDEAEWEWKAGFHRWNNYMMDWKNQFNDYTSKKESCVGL
(Ellman's reagent forms a yellow product with free thiols.)

For data set [2], the target named is T1, recombinant hMAO-B (Homo sapiens, UniProt P27338).
T1 construct: purchased Sigma-Aldrich
T1 sequence (P27338 1-520): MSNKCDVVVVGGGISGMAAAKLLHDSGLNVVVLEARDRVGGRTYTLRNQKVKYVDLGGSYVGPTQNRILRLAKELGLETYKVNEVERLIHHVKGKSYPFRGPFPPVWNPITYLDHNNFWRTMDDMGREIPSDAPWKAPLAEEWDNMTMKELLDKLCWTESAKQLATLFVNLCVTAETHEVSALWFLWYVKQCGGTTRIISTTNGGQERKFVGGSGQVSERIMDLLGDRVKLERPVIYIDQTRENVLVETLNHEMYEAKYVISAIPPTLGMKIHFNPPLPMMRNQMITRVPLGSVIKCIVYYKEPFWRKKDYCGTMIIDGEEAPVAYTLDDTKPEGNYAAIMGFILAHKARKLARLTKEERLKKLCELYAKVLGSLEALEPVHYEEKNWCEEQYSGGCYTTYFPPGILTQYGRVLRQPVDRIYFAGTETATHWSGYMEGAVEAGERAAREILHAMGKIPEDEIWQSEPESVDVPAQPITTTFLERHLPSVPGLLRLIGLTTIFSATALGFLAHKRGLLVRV
The data set is described as follows: biochemical. The procedure:
(§1) Briefly, the compounds under investigation and the reference inhibitor were preincubated with kynuramine at 37°C for 10 min in 96-well microplates. […] The enzymatic reactions were terminated by adding 400 μL of 2 N NaOH and 1,000 μL of water, followed by centrifugation at 16,000 g for 10 min. Subsequently, the concentrations of MAOs that produced 4-hydroxyquinoline were determined by measuring the fluorescence of the supernatant using a Varioskan Flash Multimode Reader ([…]) with excitation and emission wavelengths set at 310 nm and 400 nm, respectively. The IC50 values were calculated from dose-response curves and expressed as the mean ± standard deviation. These values were determined based on at least three independent experiments, each performed in triplicate.

Data set [3] addresses hAChE (Homo sapiens, UniProt P22303). Description: biochemical. Here is the method: 50 μL of hAChE (0.02 unit/mL) or hBChE (0.02 unit/mL) were incubated with 10 μL of the compound in 96-well plates at 37°C for 6 min. Subsequently, 30 μL of a substrate solution containing acetylthiocholine iodide (ATCI) or butyrylthiocholine iodide (BTCI) at a concentration of 0.01 M was added, and the mixture was further incubated at 37°C for an additional duration of 12 min.

Data set [4] deals with MAO-A. Particulars: 2023, cited from earlier work.
In data set [5] the test system is AChE. Particulars: cited from earlier work.
The subject of data set [6] is BuChE. Particulars: cited from earlier work.
Data set [7] has as its system GSK-3β. Details: method as in Beato et al., 2021; Li et al., 2023. The note with it: read-out: GSK-3β (harmine, Figure 1); ref Beato et al., 2021; Li et al., 2023; cited from earlier work.
In data set [8] the test system is Aβ1-42. The note with it: cited from earlier work.
The test system of data set [9] is BACE1. Details: method as in Bolognesi et al., 2010. The note with it: ref Bolognesi et al., 2010; read-out: IC50 for inhibiting BACE1 (bis-tacrine); cited from earlier work.
For data set [10], the target named is T2, recombinant hMAO-A (Homo sapiens, UniProt P21397).
T2 construct: purchased Sigma-Aldrich
T2 sequence (P21397 1-527): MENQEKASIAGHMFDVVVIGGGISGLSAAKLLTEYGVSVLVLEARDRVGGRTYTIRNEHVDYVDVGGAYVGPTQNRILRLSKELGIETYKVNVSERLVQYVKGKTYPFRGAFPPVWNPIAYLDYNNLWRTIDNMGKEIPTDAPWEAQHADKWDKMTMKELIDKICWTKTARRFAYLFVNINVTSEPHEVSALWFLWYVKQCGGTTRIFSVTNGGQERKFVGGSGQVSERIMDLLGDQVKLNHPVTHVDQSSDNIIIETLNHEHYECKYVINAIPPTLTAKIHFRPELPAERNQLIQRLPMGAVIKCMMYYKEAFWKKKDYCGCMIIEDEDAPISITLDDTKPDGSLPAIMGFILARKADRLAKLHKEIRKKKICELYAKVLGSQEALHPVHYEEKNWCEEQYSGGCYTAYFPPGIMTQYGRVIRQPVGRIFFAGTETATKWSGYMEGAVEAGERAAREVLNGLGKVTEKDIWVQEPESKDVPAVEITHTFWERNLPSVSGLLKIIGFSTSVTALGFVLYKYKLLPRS
Description: biochemical. Particulars: mean ± SD; read-out: IC50 (nM) for monoamine oxidases hMAO-A. Here is the method:
as §1

The subject of data set [11] is SHSY5Y cells. The data set is described as follows: In vitro cytotoxicity, MTT assay. The data set is classed as cell-based. Particulars: 48 h. Here is the method: Following this incubation period, the MTT solution was substituted with […] of DMSO and further incubated at room temperature for 10 minutes to dissolve formazan crystals formed by viable cells. Sorensen Buffer ([…]) was added subsequently followed by measuring absorbance at a wavelength of 570 nm to determine cell viability based on calculated values obtained from control samples without compound treatment. This experimental procedure was repeated independently three times.
(Tetrazolium assays rely on reduction of a dye to a coloured formazan, in cell work by metabolically active cells.)

The target of data set [12] is Aβ 1−42 (Homo sapiens, UniProt P05067). Description: Thioflavin T fluorescence assay, Aβ 1−42 self-aggregation. The class given is biochemical. The note with it: Aβ 1-42 20 μM, 37°C, 24 h. The procedure:
The thioflavin T (Th-T) fluorescence assay was used to assess the inhibition of Aβ 1−42 self-aggregation. […] Subsequently, the reaction was terminated to a final volume of 200 μL using Th-T (10 μM) solution.

The test system of data set [13] is SHSY5Y cells. Description: Protection of SHSY5Y cells against damage induced by Aβ 1−42, MTT. The data set is classed as cell-based, human. Particulars: 1 μM, co-exposed with Aβ 1-42 for 48 h. Here is the method: The protective effect of the test compounds against Aβ 1-42-induced damage was assessed by monitoring MTT reduction in cells co-exposed to the compound and Aβ 1-42 for 48 h (Figure 3) ([…]). The 6d, 8c, and 8d were tested at concentrations of 1, 5, and 10 μM. […] Therefore, it is imperative to elucidate the underlying mechanisms responsible for these protective effects.
The SHSY5Y cells were seeded in 96-well plates at a density of 1 × 10^4 cells per well and incubated at 37°C for 24 h. Each compound was dissolved in DMSO, followed by direct dilution in the cell culture medium to achieve final concentrations of 1 μM, 5 μM, and 10 μM. Aβ 1−42 was added to each well at a concentration of 5 μM. The cells were then further incubated at 37°C for an additional period of 48 h. Cell viability was subsequently assessed using the MTT assay protocol ([…]).

The subject of data set [14] is MAO-B. Details: method as in Du et al., 2023; Haider et al., 2018. The note with it: ref Du et al., 2023; Haider et al., 2018; read-out: MAO-B (compound 6 of Figure 1); cited from earlier work.
Data set [15] deals with Tau. Details: method as in Boländer et al., 2012. The note with it: ref Boländer et al., 2012; read-out: IC50 for inhibiting tau protein phosphorylation (bis-(arylvinyl)pyrazines); cited from earlier work.
For data set [16], the system named is Aβ. Details: method as in Boländer et al., 2012. Particulars: ref Boländer et al., 2012; read-out: IC50 for inhibiting Aβ aggregation (bis-(arylvinyl)pyrazines); cited from earlier work.

Sequence of hAChE (P22303 32-614): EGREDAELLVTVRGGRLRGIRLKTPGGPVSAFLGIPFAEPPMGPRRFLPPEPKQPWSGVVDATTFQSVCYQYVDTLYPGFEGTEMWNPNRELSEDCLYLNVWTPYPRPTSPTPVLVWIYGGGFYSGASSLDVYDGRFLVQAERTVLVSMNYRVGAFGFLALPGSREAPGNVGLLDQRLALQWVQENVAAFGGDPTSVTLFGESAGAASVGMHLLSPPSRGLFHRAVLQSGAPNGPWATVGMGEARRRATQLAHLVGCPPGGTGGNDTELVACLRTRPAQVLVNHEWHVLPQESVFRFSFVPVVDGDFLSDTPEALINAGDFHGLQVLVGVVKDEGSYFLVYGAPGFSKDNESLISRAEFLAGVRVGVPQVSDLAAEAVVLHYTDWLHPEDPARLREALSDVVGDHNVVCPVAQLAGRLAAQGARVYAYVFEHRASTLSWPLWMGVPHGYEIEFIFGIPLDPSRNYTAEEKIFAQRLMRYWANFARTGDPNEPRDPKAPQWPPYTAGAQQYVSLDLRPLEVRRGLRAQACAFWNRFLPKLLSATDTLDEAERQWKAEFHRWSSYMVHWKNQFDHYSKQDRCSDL
Sequence of Aβ 1−42 (P05067 672-713 limits assumed): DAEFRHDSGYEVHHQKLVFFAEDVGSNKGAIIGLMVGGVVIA

One may read the inhibition as the relative decrease from the control value, in per cent. In the case of `COc1ccc2c(c1)[nH]c1c(C)nccc12` [Harmine], the inhibition at 1 µM in data set [1] is 23.5%; in [2] (read-out: inhibition of hMAO-B in primary screening), 23.5%; in data set [3] (read-out: inhibition of hAChE in primary screening) it was 30.9%. The IC50 in [4] (read-out: MAO-A (harmine, Figure 1), ref Beato et al., 2021, Li et al.) is 380 nM; in data set [5] (read-out: AChE (harmine, Figure 1), ref Beato et al., 2021, Li et al., 2023), 9050 nM; in [6] (read-out: BuChE (harmine, Figure 1), ref Beato et al., 2021, Li et al., 2023) it was 75100 nM; in data set [7] it was 31300 nM.
Take `c1ccc2c(NCCCCCCCNc3c4c(nc5ccccc35)CCCC4)c3c(nc2c1)CCCC3` [Compound 2, Bis-tacrine]: in data set [8] (ref Bolognesi et al., 2010), the “Aβ1-42 (bis-tacrine, Figure 1)” value was 68.0%. In addition, the IC50 in [9] is 7500 nM; in data set [5] (ref Bolognesi et al., 2010, read-out: IC50 for inhibiting AChE (bis-tacrine)), […]; in data set [6] (ref Bolognesi et al., 2010, read-out: IC50 for inhibiting BuChE (bis-tacrine)), 5.66 nM.
Regarding `C=CCn1c2cc(OC(=O)CCCCN3CCN(Cc4ccc(C(F)(F)F)cc4)CC3)ccc2c2ccnc(C)c21` [Compound 7], the IC50 in data set [8] (ref Du et al., 2023, Haider et al., 2018, read-out: Aβ1-42 (compound 7 of Figure 1)) was 12400 nM; in [5] (ref Du et al., 2023, Haider et al., 2018, read-out: AChE (compound 7 of Figure 1)), 48.4 nM; in [6] (ref Du et al., 2023, Haider et al., 2018, read-out: BuChE (compound 7 of Figure 1)) it was 356 nM.
With `C=CCn1c2cc(OCCCCCCCCOc3ccc4c5ccnc(C)c5n(CC=C)c4c3)ccc2c2ccnc(C)c21` [Compound 8d, 1,8-bis ((9-allyl-1-methyl-9H-pyrido [3,4-b]indol-7-yl)oxy)octane], the inhibition at 1 µM in data set [1] (compound at 1 μM) amounted to 39.8%. The IC50 in data set [2] (mean ± SD, read-out: IC50 (nM) for monoamine oxidases hMAO-B) stood at 335 ± 13.8 nM; in data set [10], 25.7 ± 1.9 nM; in data set [3] (Mean ± SD from 3-5 assays, read-out: IC50 (nM) for cholinesterase hAChE) it was 963 ± 69.5 nM; in data set [12], 9.2 ± 0.4 µM. Further, the “S.I. Selectivity index IC50(hBuChE)/IC50(hAChE)” value in data set [3] was more than 1.0. In addition, the “cytotoxicity in SHSY5Y cells” value in data set [11] (0.1 to 10 μM) is reported as “negligible cytotoxicity”. For the same compound, in data set [11] (concentration increased to 10 μM (so in the source)), the “SHSY5Y cell viability at increased concentration” value was “evident decrease in SHSY5Y cell viability”. Further, the “cellular recovery from Aβ 1-42-induced damage” value in [13] is “significant cellular recovery”.
For the compound `Cc1nccc2c1[nH]c1cc(OCc3cn(Cc4ccccc4Cl)nn3)ccc12` [Compound 6], the IC50 is 830 nM in [4] (ref Du et al., Haider et al., 2018, read-out: MAO-A (compound 6 of Figure 1)) and 260 nM in data set [14].
On to `COc1ccc(/C=C/c2cnc(/C=C/c3ccc(OC)cc3)cn2)cc1` [Compound 3, Bis-(arylvinyl)-pyrazines], for which the IC50 in [15] is 13 nM; in data set [16], 17 nM.
With `COC(=O)c1cc2c3ccccc3n(CCCCN(C)CCN(C)CCCCn3c4ccccc4c4cc(C(=O)OC)nc(C)c43)c2c(C)n1` [Compound 5, Bis-(9)-β-carboline], in [8] (ref Rook et al., 2010, Zhao et al., 2018), the “Aβ1-42 (bis-(9)-β-carboline 5, Figure 1)” value is 65.5%. For the same compound, the IC50 in data set [5] (ref Rook et al., 2010, Zhao et al., 2018, read-out: AChE (bis-(9)-β-carboline 5, Figure 1)) was 9600 nM; in data set [6] (ref Rook et al., 2010, Zhao et al., 2018, read-out: BuChE (bis-(9)-β-carboline 5, Figure 1)), 1500 nM.
